In BigSolDB 2.1:

Nc1cc(Cl)ccc1[N+](=O)[O-]
solubility (mole fraction) (in 2-butanone, 283.15 K): 0.141 | solubility (mole fraction) (in 2-butanone, 288.15 K): 0.149 | solubility (mole fraction) (in 2-butanone, 293.15 K): 0.164 | solubility (mole fraction) (in 2-butanone, 298.15 K): 0.173 | solubility (mole fraction) (in 2-butanone, 303.15 K): 0.187 | solubility (mole fraction) (in 2-butanone, 308.15 K): 0.203 | solubility (mole fraction) (in 2-butanone, 313.15 K): 0.218 | solubility (mole fraction) (in 2-butanone, 318.15 K): 0.234 | solubility (mole fraction) (in 2-butanone, 323.15 K): 0.252 | solubility (mole fraction) (in acetone, 283.15 K): 0.126 | solubility (mole fraction) (in acetone, 288.15 K): 0.141 | solubility (mole fraction) (in acetone, 293.15 K): 0.152 | solubility (mole fraction) (in acetone, 298.15 K): 0.165 | solubility (mole fraction) (in acetone, 303.15 K): 0.183 | solubility (mole fraction) (in acetone, 308.15 K): 0.2 | solubility (mole fraction) (in acetone, 313.15 K): 0.219 | solubility (mole fraction) (in acetone, 318.15 K): 0.242 | solubility (mole fraction) (in acetone, 323.15 K): 0.262 | solubility (mole fraction) (in acetonitrile, 283.15 K): 0.0303 | solubility (mole fraction) (in acetonitrile, 288.15 K): 0.036 | solubility (mole fraction) (in acetonitrile, 293.15 K): 0.0428 | solubility (mole fraction) (in acetonitrile, 298.15 K): 0.0519 | solubility (mole fraction) (in acetonitrile, 303.15 K): 0.0633 | solubility (mole fraction) (in acetonitrile, 308.15 K): 0.0751 | solubility (mole fraction) (in acetonitrile, 313.15 K): 0.0945 | solubility (mole fraction) (in acetonitrile, 318.15 K): 0.11 | solubility (mole fraction) (in acetonitrile, 323.15 K): 0.135 | solubility (mole fraction) (in ethanol, 283.15 K): 0.0164 | solubility (mole fraction) (in ethanol, 288.15 K): 0.0184 | solubility (mole fraction) (in ethanol, 293.15 K): 0.0215 | solubility (mole fraction) (in ethanol, 298.15 K): 0.0243 | solubility (mole fraction) (in ethanol, 303.15 K): 0.0273 | solubility (mole fraction) (in ethanol, 308.15 K): 0.0317 | solubility (mole fraction) (in ethanol, 313.15 K): 0.0373 | solubility (mole fraction) (in ethanol, 318.15 K): 0.0441 | solubility (mole fraction) (in ethanol, 323.15 K): 0.0497 | solubility (mole fraction) (in ethyl acetate, 283.15 K): 0.0983 | solubility (mole fraction) (in ethyl acetate, 288.15 K): 0.107 | solubility (mole fraction) (in ethyl acetate, 293.15 K): 0.117 | solubility (mole fraction) (in ethyl acetate, 298.15 K): 0.133 | solubility (mole fraction) (in ethyl acetate, 303.15 K): 0.144 | solubility (mole fraction) (in ethyl acetate, 308.15 K): 0.158 | solubility (mole fraction) (in ethyl acetate, 313.15 K): 0.174 | solubility (mole fraction) (in ethyl acetate, 318.15 K): 0.193 | solubility (mole fraction) (in ethyl acetate, 323.15 K): 0.24 | solubility (mole fraction) (in isobutanol, 283.15 K): 0.0116 | solubility (mole fraction) (in isobutanol, 288.15 K): 0.0129 | solubility (mole fraction) (in isobutanol, 293.15 K): 0.0154 | solubility (mole fraction) (in isobutanol, 298.15 K): 0.0185 | solubility (mole fraction) (in isobutanol, 303.15 K): 0.0219 | solubility (mole fraction) (in isobutanol, 308.15 K): 0.0259 | solubility (mole fraction) (in isobutanol, 313.15 K): 0.0308 | solubility (mole fraction) (in isobutanol, 318.15 K): 0.0361 | solubility (mole fraction) (in isobutanol, 323.15 K): 0.0444 | solubility (mole fraction) (in isopropanol, 283.15 K): 0.0146 | solubility (mole fraction) (in isopropanol, 288.15 K): 0.017 | solubility (mole fraction) (in isopropanol, 293.15 K): 0.0197 | solubility (mole fraction) (in isopropanol, 298.15 K): 0.0232 | solubility (mole fraction) (in isopropanol, 303.15 K): 0.0267 | solubility (mole fraction) (in isopropanol, 308.15 K): 0.0321 | solubility (mole fraction) (in isopropanol, 313.15 K): 0.0372 | solubility (mole fraction) (in isopropanol, 318.15 K): 0.0451 | solubility (mole fraction) (in isopropanol, 323.15 K): 0.0539 | solubility (mole fraction) (in methanol, 283.15 K): 0.0104 | solubility (mole fraction) (in methanol, 288.15 K): 0.0122 | solubility (mole fraction) (in methanol, 293.15 K): 0.0142 | solubility (mole fraction) (in methanol, 298.15 K): 0.0164 | solubility (mole fraction) (in methanol, 303.15 K): 0.019 | solubility (mole fraction) (in methanol, 308.15 K): 0.0235 | solubility (mole fraction) (in methanol, 313.15 K): 0.027 | solubility (mole fraction) (in methanol, 318.15 K): 0.0326 | solubility (mole fraction) (in methanol, 323.15 K): 0.0374 | solubility (mole fraction) (in methyl acetate, 283.15 K): 0.101 | solubility (mole fraction) (in methyl acetate, 288.15 K): 0.108 | solubility (mole fraction) (in methyl acetate, 293.15 K): 0.12 | solubility (mole fraction) (in methyl acetate, 298.15 K): 0.133 | solubility (mole fraction) (in methyl acetate, 303.15 K): 0.147 | solubility (mole fraction) (in methyl acetate, 308.15 K): 0.162 | solubility (mole fraction) (in methyl acetate, 313.15 K): 0.178 | solubility (mole fraction) (in methyl acetate, 318.15 K): 0.192 | solubility (mole fraction) (in methyl acetate, 323.15 K): 0.214 | solubility (mole fraction) (in n-butanol, 283.15 K): 0.0182 | solubility (mole fraction) (in n-butanol, 288.15 K): 0.0209 | solubility (mole fraction) (in n-butanol, 293.15 K): 0.0246 | solubility (mole fraction) (in n-butanol, 298.15 K): 0.0283 | solubility (mole fraction) (in n-butanol, 303.15 K): 0.0311 | solubility (mole fraction) (in n-butanol, 308.15 K): 0.0358 | solubility (mole fraction) (in n-butanol, 313.15 K): 0.0426 | solubility (mole fraction) (in n-butanol, 318.15 K): 0.0481 | solubility (mole fraction) (in n-butanol, 323.15 K): 0.0553 | solubility (mole fraction) (in n-propanol, 283.15 K): 0.0161 | solubility (mole fraction) (in n-propanol, 288.15 K): 0.0184 | solubility (mole fraction) (in n-propanol, 293.15 K): 0.0214 | solubility (mole fraction) (in n-propanol, 298.15 K): 0.0246 | solubility (mole fraction) (in n-propanol, 303.15 K): 0.0284 | solubility (mole fraction) (in n-propanol, 308.15 K): 0.0315 | solubility (mole fraction) (in n-propanol, 313.15 K): 0.0373 | solubility (mole fraction) (in n-propanol, 318.15 K): 0.0452 | solubility (mole fraction) (in n-propanol, 323.15 K): 0.0517 | solubility (mole fraction) (in water, 283.15 K): 5.45e-06 | solubility (mole fraction) (in water, 288.15 K): 9.54e-06 | solubility (mole fraction) (in water, 293.15 K): 1.22e-05 | solubility (mole fraction) (in water, 298.15 K): 1.77e-05 | solubility (mole fraction) (in water, 303.15 K): 2.18e-05 | solubility (mole fraction) (in water, 308.15 K): 2.73e-05 | solubility (mole fraction) (in water, 313.15 K): 3.53e-05 | solubility (mole fraction) (in water, 318.15 K): 4.25e-05 | solubility (mole fraction) (in water, 323.15 K): 4.78e-05
